Consider 20 molecules from patent US9822124B2, “Bicyclic heteroaromatic carboxamide compounds useful as Pim kinase inhibitors” (Incyte Corporation, priority 2014, dated 2017).

Common to all, as to format: biochemical
In one assay the target is Pim-3 (Homo sapiens (Human), UniProt Q86V86). The assay can be described thus: Pim-3 kinase assay (AlphaScreen, Biotin-labeled BAD peptide substrate). The conditions noted are these: 1 mM ATP; read-out: Pim3 IC50. On the procedure: (§1) Pim-1 and Pim-3 kinase assays—20 μL reactions were run in white 384 well polystyrene plates dotted with 0.8 μL compound/DMSO in the assay buffer (50 mM Tris, pH 7.5, 0.01% Tween-20, 5 mM MgCl2, 0.01% BSA, 5 mM DTT), containing 0.05 μM Biotin-labeled BAD peptide substrate (AnaSpec 62269), 1 mM ATP, and […] (Pim-1, Invitrogen PV3503) or […] (Pim-3, Millipore 14-738) enzyme for 1 h at 25° C. Reactions were stopped by addition of 10 μL STOP Buffer (150 mM Tris, pH=7.5, 150 mM NaCl, 75 mM EDTA, 0.01% Tween-20, 0.3% BSA) supplemented with Phospho-Bad (Ser112) Antibody (Cell Signaling 9291) diluted 666-fold, and Streptavidin donor beads (PerkinElmer 6760002) along with Protein-A acceptor beads (PerkinElmer 6760137) at 15 μg/mL each. Supplementation of the STOP buffer with beads and stopping the reactions were done under reduced light. Prior to the stopping reactions STOP buffer with beads was preincubated for 1 h in the dark at room temperature. After stopping the reactions, plates were incubated for 1 h in the dark at room temperature before reading on a PHERAstar FS plate reader (BMG Labtech) under reduced light.
(In Alpha technology, singlet oxygen from a donor bead excites a nearby acceptor bead.)

A further assay has as its target Pim-1 (Homo sapiens (Human), UniProt P11309). The assay can be described thus: Pim-1 kinase assay (AlphaScreen, Biotin-labeled BAD peptide substrate). The following applies: 1 mM ATP; read-out: Pim1 IC50. On the procedure: as §1
Another assay addresses Pim-2 (Homo sapiens (Human), UniProt Q9P1W9). The assay can be described thus: Pim-2 kinase assay (TR-FRET, Fluorescein-labeled CREBtide peptide substrate). The following applies: 1 mM ATP; read-out: Pim2 IC50. The method, then: Pim-2 kinase assay—20 μL reactions were run in white 384 well polystyrene plates dotted with 0.8 μL compound/DMSO in the assay buffer (50 mM Tris, pH 7.5, 0.01% Tween-20, 5 mM MgCl2, 0.01% BSA, 5 mM DTT), containing 0.05 μM Fluorescein-labeled CREBtide peptide substrate (Invitrogen PV3508), 1 mM ATP, and 1 nM enzyme (Invitrogen PV3649) for 2 h at 25° C. Reactions were stopped by addition of 10 μL TR-FRET Dilution Buffer (Invitrogen PV3574) with 30 mM EDTA and 1.5 nM LanthaScreen Tb-CREB pSer133 antibody (Invitrogen PV3566). After 30 min. incubation at room temperature, plates were read on a PHERAstar FS plate reader (BMG Labtech).

A value given as a limit tells only on which side of the number the result lay.

Chain of Pim-2 (Q9P1W9 whole entry): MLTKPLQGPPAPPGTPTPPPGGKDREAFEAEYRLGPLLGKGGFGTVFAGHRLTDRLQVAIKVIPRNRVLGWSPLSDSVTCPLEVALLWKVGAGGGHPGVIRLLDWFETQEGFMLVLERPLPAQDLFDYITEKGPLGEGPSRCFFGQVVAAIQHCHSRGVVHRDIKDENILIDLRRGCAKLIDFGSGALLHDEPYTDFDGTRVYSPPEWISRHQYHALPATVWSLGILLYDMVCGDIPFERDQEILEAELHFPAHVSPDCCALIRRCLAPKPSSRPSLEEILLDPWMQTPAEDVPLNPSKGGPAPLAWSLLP
Chain of Pim-1 (P11309 whole entry): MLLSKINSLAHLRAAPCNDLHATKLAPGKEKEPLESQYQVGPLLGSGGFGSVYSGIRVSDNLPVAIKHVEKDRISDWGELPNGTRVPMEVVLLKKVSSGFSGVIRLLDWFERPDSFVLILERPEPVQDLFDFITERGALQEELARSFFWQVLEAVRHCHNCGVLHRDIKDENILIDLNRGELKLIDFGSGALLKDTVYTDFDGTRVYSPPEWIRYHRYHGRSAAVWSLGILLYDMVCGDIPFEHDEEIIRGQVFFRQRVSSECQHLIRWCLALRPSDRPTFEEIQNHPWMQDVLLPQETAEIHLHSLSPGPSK

On to `COc1ccc(F)c(-c2coc3ccc(C(=O)Nc4cnccc4N4C[C@@H](N)[C@H](O)[C@@H](C)C4)nc23)c1F` [Example 13, N-(4-((3R,4R,5S)-3-Amino-4-hydroxy-5-methylpiperidin-1-yl)pyridin-3-yl)-3-(2,6-difluoro-3-methoxyphenyl)furo[3,2-b]pyridine-5-carboxamide], for which the IC50 is at most 10 nM at Pim-3, at most 10 nM on Pim-1 and 100 to 1000 nM on Pim-2.

Consider `COc1ccc(-c2coc3ccc(C(=O)Nc4cnccc4N4C[C@@H](N)[C@H](O)[C@@H](C)C4)nc23)cn1` [Example 14, N-(4-((3R,4R,5S)-3-Amino-4-hydroxy-5-methylpiperidin-1-yl)pyridin-3-yl)-3-(6-methoxypyridin-3-yl)furo[3,2-b]pyridine-5-carboxamide], for which the results for the IC50 at Pim-3, on Pim-1 and on Pim-2 were 10 to 50 nM, at most 10 nM and 1000 to 10000 nM, respectively.

`CCc1coc2ccc(C(=O)Nc3cnccc3N3C[C@@H](N)[C@H](O)[C@@H](C)C3)nc12` [Example 15, N-(4-((3R,4R,5S)-3-Amino-4-hydroxy-5-methylpiperidin-1-yl)pyridin-3-yl)-3-ethylfuro[3,2-b]pyridine-5-carboxamide]: the results for the 50% inhibitory concentration (IC50) at Pim-3, at Pim-1 and on Pim-2 were at most 10 nM, at most 10 nM and at most 100 nM, respectively.

Consider `C[C@H]1CN(c2ccncc2NC(=O)c2ccc3occ(C4CCN(C)CC4)c3n2)C[C@@H](N)[C@@H]1O` [Example 16, N-(4-((3R,4R,5S)-3-Amino-4-hydroxy-5-methylpiperidin-1-yl)pyridin-3-yl)-3-(1-methylpiperidin-4-yl)furo[3,2-b]pyridine-5-carboxamide], for which the IC50 on Pim-3 was above 40 nM; on Pim-1, 10 to 50 nM; on Pim-2 it was above 2000 nM.

Take `C[C@H]1CN(c2ccncc2NC(=O)c2ccc3occ(C4CCOCC4)c3n2)C[C@@H](N)[C@@H]1O` [Example 17, N-(4-((3R,4R,5S)-3-Amino-4-hydroxy-5-methylpiperidin-1-yl)pyridin-3-yl)-3-(tetrahydro-2H-pyran-4-yl)furo[3,2-b]pyridine-5-carboxamide]: the 50% inhibitory concentration (IC50) at Pim-3 was at most 10 nM; at Pim-1, at most 10 nM; at Pim-2, 100 to 1000 nM.

Take `CC(C)c1coc2ccc(C(=O)Nc3cnccc3N3C[C@H](C)C[C@H](N)C3)nc12` [Example 18, N-(4-((3S,5R)-3-Amino-5-methylpiperidin-1-yl)pyridin-3-yl)-3-isopropylfuro[3,2-b]pyridine-5-carboxamide]: the half-maximal inhibitory concentration (IC50) at Pim-3 was at most 10 nM; at Pim-1 it was at most 10 nM; on Pim-2, at most 100 nM.

In the case of `C[C@@H]1C[C@H](N)CN(c2ccncc2NC(=O)c2ccc3occ(-c4c(F)cccc4F)c3n2)C1` [Example 19, N-(4-((3S,5R)-3-Amino-5-methylpiperidin-1-yl)pyridin-3-yl)-3-(2,6-difluorophenyl)furo[3,2-b]pyridine-5-carboxamide], the IC50 was at most 10 nM at Pim-3, at most 10 nM at Pim-1 and at most 100 nM on Pim-2.

`CCc1coc2ccc(C(=O)Nc3cnccc3N3C[C@H](C)C[C@H](N)C3)nc12` [Example 20, N-(4-((3S,5R)-3-Amino-5-methylpiperidin-1-yl)pyridin-3-yl)-3-ethylfuro[3,2-b]pyridine-5-carboxamide]: the figures for the concentration for half-maximal inhibition (IC50) at Pim-3, on Pim-1 and at Pim-2 were at most 10 nM, at most 10 nM and at most 100 nM, respectively.

With `C[C@@H]1C[C@H](N)CN(c2ccncc2NC(=O)c2ccc3occ(-c4ccccc4F)c3n2)C1` [Example 21, N-(4-((3S,5R)-3-Amino-5-methylpiperidin-1-yl)pyridin-3-yl)-3-(2-fluorophenyl)furo[3,2-b]pyridine-5-carboxamide], the results for the concentration for half-maximal inhibition (IC50) at Pim-3, at Pim-1 and at Pim-2 were at most 10 nM, at most 10 nM and at most 100 nM, respectively.

Consider `COc1ccc(F)c(-c2coc3ccc(C(=O)Nc4cnccc4N4C[C@H](C)C[C@H](N)C4)nc23)c1F` [Example 22, N-(4-((3S,5R)-3-Amino-5-methylpiperidin-1-yl)pyridin-3-yl)-3-(2,6-difluoro-3-methoxyphenyl)furo[3,2-b]pyridine-5-carboxamide], for which the half-maximal inhibitory concentration (IC50) on Pim-3 is at most 10 nM; on Pim-1 it was at most 10 nM; at Pim-2 it was at most 100 nM.

For the molecule `COc1ccc(-c2coc3ccc(C(=O)Nc4cnccc4N4C[C@H](C)C[C@H](N)C4)nc23)cn1` [Example 23, N-(4-((3S,5R)-3-Amino-5-methylpiperidin-1-yl)pyridin-3-yl)-3-(6-methoxypyridin-3-yl)furo[3,2-b]pyridine-5-carboxamide], the values for the IC50 on Pim-3, on Pim-1 and on Pim-2 were 10 to 50 nM, at most 10 nM and 1000 to 10000 nM, respectively.

On to `C[C@@H]1C[C@H](N)CN(c2ccncc2NC(=O)c2ccc3occ(C4CCN(C)CC4)c3n2)C1` [Example 24, N-(4-((3S,5R)-3-Amino-5-methylpiperidin-1-yl)pyridin-3-yl)-3-(1-methylpiperidin-4-yl)furo[3,2-b]pyridine-5-carboxamide], for which the figures for the 50% inhibitory concentration (IC50) at Pim-3, on Pim-1 and on Pim-2 were above 40 nM, at most 10 nM and above 2000 nM, respectively.

Take `C[C@@H]1C[C@H](N)CN(c2ccncc2NC(=O)c2ccc3occ(C4CCOCC4)c3n2)C1` [Example 25, N-(4-((3S,5R)-3-Amino-5-methylpiperidin-1-yl)pyridin-3-yl)-3-(tetrahydro-2H-pyran-4-yl)furo[3,2-b]pyridine-5-carboxamide]: the half-inhibitory concentration (IC50) is at most 10 nM at Pim-3, at most 10 nM at Pim-1 and 100 to 1000 nM at Pim-2.

Regarding `C[C@@H]1C[C@H](N)CN(c2ccncc2NC(=O)c2ccc3occ(-c4cncc(C#N)c4)c3n2)C1` [Example 26, N-(4-((3S,5R)-3-Amino-5-methylpiperidin-1-yl)pyridin-3-yl)-3-(5-cyanopyridin-3-yl)furo[3,2-b]pyridine-5-carboxamide], the half-inhibitory concentration (IC50) was 10 to 50 nM at Pim-3, at most 10 nM at Pim-1 and above 2000 nM at Pim-2.

As for `C[C@@H]1C[C@H](N)CN(c2ccncc2NC(=O)c2ccc3occ(-c4cc(F)nc(F)c4)c3n2)C1` [Example 27, N-(4-((3S,5R)-3-Amino-5-methylpiperidin-1-yl)pyridin-3-yl)-3-(2,6-difluoropyridin-4-yl)furo[3,2-b]pyridine-5-carboxamide], the IC50 on Pim-3 is above 40 nM; on Pim-1, 10 to 50 nM; on Pim-2, above 2000 nM.

As to `C[C@@H]1C[C@H](N)CN(c2ccncc2NC(=O)c2ccc3occ(-c4cnoc4)c3n2)C1` [Example 28, N-(4-((3S,5R)-3-Amino-5-methylpiperidin-1-yl)pyridin-3-yl)-3-(isoxazol-4-yl)furo[3,2-b]pyridine-5-carboxamide], the concentration for half-maximal inhibition (IC50) is 10 to 50 nM at Pim-3, at most 10 nM at Pim-1 and above 2000 nM at Pim-2.

`C[C@@H]1C[C@H](N)CN(c2ccncc2NC(=O)c2ccc3occ(-c4cnn(C)c4)c3n2)C1` [Example 29, N-(4-((3S,5R)-3-Amino-5-methylpiperidin-1-yl)pyridin-3-yl)-3-(1-methyl-1H-pyrazol-4-yl)furo[3,2-b]pyridine-5-carboxamide]: the concentration for half-maximal inhibition (IC50) at Pim-3 was 10 to 50 nM; on Pim-1, at most 10 nM; on Pim-2, 1000 to 10000 nM.

As for `C[C@@H]1C[C@H](N)CN(c2ccncc2NC(=O)c2ccc3occ(-c4cncnc4)c3n2)C1` [Example 30, N-(4-((3S,5R)-3-Amino-5-methylpiperidin-1-yl)pyridin-3-yl)-3-(pyrimidin-5-yl)furo[3,2-b]pyridine-5-carboxamide], the half-inhibitory concentration (IC50) at Pim-3 was above 40 nM; on Pim-1, 10 to 50 nM; at Pim-2, above 2000 nM.

`COc1cncc(-c2coc3ccc(C(=O)Nc4cnccc4N4C[C@H](C)C[C@H](N)C4)nc23)c1` [Example 32, N-(4-((3S,5R)-3-Amino-5-methylpiperidin-1-yl)pyridin-3-yl)-3-(5-methoxypyridin-3-yl)furo[3,2-b]pyridine-5-carboxamide]: the half-inhibitory concentration (IC50) on Pim-3 was at most 10 nM; on Pim-1, at most 10 nM; on Pim-2, 1000 to 10000 nM.

For the molecule `C[C@@H]1C[C@H](N)CN(c2ccncc2NC(=O)c2ccc3occ(C4=COCCC4)c3n2)C1` [Example 33, N-(4-((3S,5R)-3-Amino-5-methylpiperidin-1-yl)pyridin-3-yl)-3-(3,4-dihydro-2H-pyran-5-yl)furo[3,2-b]pyridine-5-carboxamide], the figures for the half-inhibitory concentration (IC50) on Pim-3, on Pim-1 and at Pim-2 were at most 10 nM, at most 10 nM and at most 100 nM, respectively.

As usually defined, the IC50 is the midpoint of a concentration-inhibition curve.
